ChEMBL document CHEMBL4507275, “Data for DCP probe BI-2545” (2021)

Key:
[1] = tested on: Tyrosine-protein kinase ABL1 (Homo sapiens), P00519 [F317I]; settings: Compound concentration 1000.0 nM
[2] = biological target: BMP-2-inducible protein kinase (Homo sapiens) (UniProt Q9NSY1); settings: Compound concentration 1000.0 nM
[3] = biological target: Casein kinase I isoform gamma-1 (Homo sapiens) (UniProt Q9HCP0); settings: Compound concentration 1000.0 nM
[4] = biological target: Casein kinase I isoform gamma-3 (Homo sapiens) (UniProt Q9Y6M4); settings: Compound concentration 1000.0 nM
[5] = tested on: Epidermal growth factor receptor (Homo sapiens), P00533 [UNDEFINED MUTATION]; settings: Compound concentration 1000.0 nM
Chain of Epidermal growth factor receptor (Homo sapiens), P00533 [UNDEFINED MUTATION] (P00533 whole entry, looked up, change not shown): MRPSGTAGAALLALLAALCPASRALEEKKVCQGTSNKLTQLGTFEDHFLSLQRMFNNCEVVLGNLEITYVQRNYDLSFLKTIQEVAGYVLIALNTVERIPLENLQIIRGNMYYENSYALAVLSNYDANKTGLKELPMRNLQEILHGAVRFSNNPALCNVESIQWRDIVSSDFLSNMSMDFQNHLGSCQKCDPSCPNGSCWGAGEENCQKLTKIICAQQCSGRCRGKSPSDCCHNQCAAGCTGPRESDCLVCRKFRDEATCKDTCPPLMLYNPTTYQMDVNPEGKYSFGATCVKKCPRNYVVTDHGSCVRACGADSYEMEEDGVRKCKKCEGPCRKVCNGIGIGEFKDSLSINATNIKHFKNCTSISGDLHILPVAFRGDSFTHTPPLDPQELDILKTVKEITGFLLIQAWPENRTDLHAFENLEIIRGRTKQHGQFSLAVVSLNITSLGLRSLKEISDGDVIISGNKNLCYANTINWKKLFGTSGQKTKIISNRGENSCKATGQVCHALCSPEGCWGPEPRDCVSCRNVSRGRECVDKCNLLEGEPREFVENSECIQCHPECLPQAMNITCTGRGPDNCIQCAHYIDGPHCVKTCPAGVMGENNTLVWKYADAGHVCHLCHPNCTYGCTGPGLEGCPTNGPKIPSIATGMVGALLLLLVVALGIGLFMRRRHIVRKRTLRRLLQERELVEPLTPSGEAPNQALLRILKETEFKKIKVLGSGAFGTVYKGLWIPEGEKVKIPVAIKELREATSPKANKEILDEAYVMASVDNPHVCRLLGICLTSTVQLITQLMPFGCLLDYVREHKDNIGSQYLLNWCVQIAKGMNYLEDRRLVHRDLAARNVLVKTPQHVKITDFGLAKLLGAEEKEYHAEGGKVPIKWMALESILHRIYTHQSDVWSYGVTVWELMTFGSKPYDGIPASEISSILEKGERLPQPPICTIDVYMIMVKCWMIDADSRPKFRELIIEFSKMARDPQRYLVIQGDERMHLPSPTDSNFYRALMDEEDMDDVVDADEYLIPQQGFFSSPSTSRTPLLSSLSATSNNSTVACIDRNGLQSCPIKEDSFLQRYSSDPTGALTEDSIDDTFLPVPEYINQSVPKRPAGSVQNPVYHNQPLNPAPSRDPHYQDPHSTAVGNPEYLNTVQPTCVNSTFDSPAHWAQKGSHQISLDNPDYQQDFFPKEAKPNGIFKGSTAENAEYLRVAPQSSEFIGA

[6] = tested on: Epidermal growth factor receptor (Homo sapiens), P00533 [UNDEFINED MUTATION]; settings: Compound concentration 1000.0 nM; remark: listed apart in the source
[7] = biological target: Mitogen-activated protein kinase 6 (Homo sapiens) (UniProt Q16659); settings: Compound concentration 1000.0 nM
[8] = biological target: Fibroblast growth factor receptor 3 (Homo sapiens) (UniProt P22607); settings: Compound concentration 1000.0 nM
[9] = biological target: Beta-adrenergic receptor kinase 1 (Homo sapiens) (UniProt P25098); settings: Compound concentration 1000.0 nM
[10] = biological target: Serine/threonine-protein kinase haspin (Homo sapiens) (UniProt Q8TF76); settings: Compound concentration 1000.0 nM
[11] = biological target: Serine/threonine-protein kinase LATS1 (Homo sapiens) (UniProt O95835); settings: Compound concentration 1000.0 nM
[12] = biological target: Serine/threonine-protein kinase LATS2 (Homo sapiens) (UniProt Q9NRM7); settings: Compound concentration 1000.0 nM
[13] = biological target: LIM domain kinase 1 (Homo sapiens) (UniProt P53667); settings: Compound concentration 1000.0 nM
[14] = biological target: Serine/threonine-protein kinase STK11 (Homo sapiens) (UniProt Q15831); settings: Compound concentration 1000.0 nM
[15] = biological target: Serine/threonine-protein kinase 10 (Homo sapiens) (UniProt O94804); settings: Compound concentration 1000.0 nM
[16] = biological target: Leukocyte tyrosine kinase receptor (Homo sapiens) (UniProt P29376); settings: Compound concentration 1000.0 nM
[17] = biological target: Serine/threonine-protein kinase MRCK beta (Homo sapiens) (UniProt Q9Y5S2); settings: Compound concentration 1000.0 nM
[18] = biological target: Serine/threonine-protein kinase 24 (Homo sapiens) (UniProt Q9Y6E0); settings: Compound concentration 1000.0 nM
[19] = biological target: Serine/threonine-protein kinase Nek5 (Homo sapiens) (UniProt Q6P3R8); settings: Compound concentration 1000.0 nM
[20] = biological target: Mitogen-activated protein kinase 13 (Homo sapiens) (UniProt O15264); settings: Compound concentration 1000.0 nM
[21] = biological target: Serine/threonine-protein kinase PAK 2 (Homo sapiens) (UniProt Q13177); settings: Compound concentration 1000.0 nM
[22] = biological target: 3-phosphoinositide-dependent protein kinase 1 (Homo sapiens) (UniProt O15530); settings: Compound concentration 1000.0 nM
[23] = biological target: Phosphatidylinositol 4,5-bisphosphate 3-kinase catalytic subunit gamma isoform (Homo sapiens) (UniProt P48736); settings: Compound concentration 1000.0 nM
[24] = biological target: Serine/threonine-protein kinase pim-3 (Homo sapiens) (UniProt Q86V86); settings: Compound concentration 1000.0 nM
[25] = biological target: Phosphatidylinositol 4-phosphate 5-kinase type-1 gamma (Homo sapiens) (UniProt O60331); settings: Compound concentration 1000.0 nM
Chain of Phosphatidylinositol 4-phosphate 5-kinase type-1 gamma (Homo sapiens) (O60331 whole entry): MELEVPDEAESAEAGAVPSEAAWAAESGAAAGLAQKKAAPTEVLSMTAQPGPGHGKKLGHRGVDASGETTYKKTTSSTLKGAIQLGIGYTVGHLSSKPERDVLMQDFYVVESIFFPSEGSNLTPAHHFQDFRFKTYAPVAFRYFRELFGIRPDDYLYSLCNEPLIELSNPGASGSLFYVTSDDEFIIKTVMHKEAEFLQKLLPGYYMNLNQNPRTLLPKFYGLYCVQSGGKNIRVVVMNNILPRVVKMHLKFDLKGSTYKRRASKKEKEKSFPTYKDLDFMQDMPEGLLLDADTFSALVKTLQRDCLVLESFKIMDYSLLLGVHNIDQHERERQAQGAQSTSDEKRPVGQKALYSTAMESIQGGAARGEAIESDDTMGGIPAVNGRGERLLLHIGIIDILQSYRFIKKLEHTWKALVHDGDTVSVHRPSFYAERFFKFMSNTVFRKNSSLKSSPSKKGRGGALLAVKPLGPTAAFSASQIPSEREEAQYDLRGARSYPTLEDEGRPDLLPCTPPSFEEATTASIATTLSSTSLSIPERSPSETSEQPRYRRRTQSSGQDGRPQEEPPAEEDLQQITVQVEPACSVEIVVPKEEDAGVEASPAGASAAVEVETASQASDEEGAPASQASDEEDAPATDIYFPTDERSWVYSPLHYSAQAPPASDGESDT

[26] = biological target: Serine/threonine-protein kinase PknB (Mycobacterium tuberculosis) (UniProt P9WI81); settings: Compound concentration 1000.0 nM
[27] = biological target: cAMP-dependent protein kinase catalytic subunit PRKX (Homo sapiens) (UniProt P51817); settings: Compound concentration 1000.0 nM
[28] = biological target: RAF proto-oncogene serine/threonine-protein kinase (Homo sapiens) (UniProt P04049); settings: Compound concentration 1000.0 nM
[29] = biological target: Proto-oncogene tyrosine-protein kinase receptor Ret (Homo sapiens) (UniProt P07949); settings: Compound concentration 1000.0 nM
Chain of Proto-oncogene tyrosine-protein kinase receptor Ret (Homo sapiens) (P07949 whole entry): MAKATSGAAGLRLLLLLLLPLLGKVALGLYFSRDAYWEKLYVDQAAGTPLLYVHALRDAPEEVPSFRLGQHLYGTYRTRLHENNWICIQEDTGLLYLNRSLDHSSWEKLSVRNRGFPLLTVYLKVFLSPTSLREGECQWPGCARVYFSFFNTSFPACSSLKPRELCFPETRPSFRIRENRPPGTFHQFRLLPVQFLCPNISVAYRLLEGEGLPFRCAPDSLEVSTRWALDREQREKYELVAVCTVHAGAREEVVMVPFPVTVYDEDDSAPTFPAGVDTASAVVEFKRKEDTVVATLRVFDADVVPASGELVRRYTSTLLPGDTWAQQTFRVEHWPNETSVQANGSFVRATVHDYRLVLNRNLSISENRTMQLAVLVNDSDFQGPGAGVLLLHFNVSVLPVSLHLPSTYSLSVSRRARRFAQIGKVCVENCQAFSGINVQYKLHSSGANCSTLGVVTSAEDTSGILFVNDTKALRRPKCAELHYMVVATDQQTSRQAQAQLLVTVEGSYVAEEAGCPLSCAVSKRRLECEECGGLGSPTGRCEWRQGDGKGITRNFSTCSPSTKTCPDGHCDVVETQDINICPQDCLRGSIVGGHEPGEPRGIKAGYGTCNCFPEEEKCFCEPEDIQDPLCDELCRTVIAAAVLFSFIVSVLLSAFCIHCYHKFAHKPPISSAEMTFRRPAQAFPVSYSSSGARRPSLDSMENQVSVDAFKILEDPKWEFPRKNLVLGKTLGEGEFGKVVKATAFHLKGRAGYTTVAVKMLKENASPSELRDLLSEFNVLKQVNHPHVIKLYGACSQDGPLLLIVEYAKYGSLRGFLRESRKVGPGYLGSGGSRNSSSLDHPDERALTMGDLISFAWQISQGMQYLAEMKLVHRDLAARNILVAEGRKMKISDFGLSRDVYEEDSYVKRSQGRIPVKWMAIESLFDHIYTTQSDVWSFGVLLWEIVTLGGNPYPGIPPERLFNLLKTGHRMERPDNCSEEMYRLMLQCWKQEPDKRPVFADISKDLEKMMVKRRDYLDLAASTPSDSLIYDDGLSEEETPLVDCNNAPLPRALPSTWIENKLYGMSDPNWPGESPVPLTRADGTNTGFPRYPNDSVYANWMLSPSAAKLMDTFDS

[30] = tested on: Proto-oncogene tyrosine-protein kinase receptor Ret (Homo sapiens), P07949 [M918T]; settings: Compound concentration 1000.0 nM
Chain of Proto-oncogene tyrosine-protein kinase receptor Ret (Homo sapiens), P07949 [M918T] (P07949 whole entry M918T): as the sequence (P07949 whole entry) above, with M918T counted along it

[31] = biological target: Ribosomal protein S6 kinase alpha-5 (Homo sapiens) (UniProt O75582); settings: Compound concentration 1000.0 nM
[32] = biological target: Ribosomal protein S6 kinase alpha-1 (Homo sapiens) (UniProt Q15418); settings: Compound concentration 1000.0 nM
[33] = biological target: Ribosomal protein S6 kinase alpha-3 (Homo sapiens) (UniProt P51812); settings: Compound concentration 1000.0 nM
[34] = biological target: SNF-related serine/threonine-protein kinase (Homo sapiens) (UniProt Q9NRH2); settings: Compound concentration 1000.0 nM
[35] = biological target: Serine/threonine-protein kinase TNNI3K (Homo sapiens) (UniProt Q59H18); settings: Compound concentration 1000.0 nM
[36] = biological target: Tyrosine-protein kinase receptor TYRO3 (Homo sapiens) (UniProt Q06418); settings: Compound concentration 1000.0 nM
Chain of Tyrosine-protein kinase receptor TYRO3 (Homo sapiens) (Q06418 whole entry): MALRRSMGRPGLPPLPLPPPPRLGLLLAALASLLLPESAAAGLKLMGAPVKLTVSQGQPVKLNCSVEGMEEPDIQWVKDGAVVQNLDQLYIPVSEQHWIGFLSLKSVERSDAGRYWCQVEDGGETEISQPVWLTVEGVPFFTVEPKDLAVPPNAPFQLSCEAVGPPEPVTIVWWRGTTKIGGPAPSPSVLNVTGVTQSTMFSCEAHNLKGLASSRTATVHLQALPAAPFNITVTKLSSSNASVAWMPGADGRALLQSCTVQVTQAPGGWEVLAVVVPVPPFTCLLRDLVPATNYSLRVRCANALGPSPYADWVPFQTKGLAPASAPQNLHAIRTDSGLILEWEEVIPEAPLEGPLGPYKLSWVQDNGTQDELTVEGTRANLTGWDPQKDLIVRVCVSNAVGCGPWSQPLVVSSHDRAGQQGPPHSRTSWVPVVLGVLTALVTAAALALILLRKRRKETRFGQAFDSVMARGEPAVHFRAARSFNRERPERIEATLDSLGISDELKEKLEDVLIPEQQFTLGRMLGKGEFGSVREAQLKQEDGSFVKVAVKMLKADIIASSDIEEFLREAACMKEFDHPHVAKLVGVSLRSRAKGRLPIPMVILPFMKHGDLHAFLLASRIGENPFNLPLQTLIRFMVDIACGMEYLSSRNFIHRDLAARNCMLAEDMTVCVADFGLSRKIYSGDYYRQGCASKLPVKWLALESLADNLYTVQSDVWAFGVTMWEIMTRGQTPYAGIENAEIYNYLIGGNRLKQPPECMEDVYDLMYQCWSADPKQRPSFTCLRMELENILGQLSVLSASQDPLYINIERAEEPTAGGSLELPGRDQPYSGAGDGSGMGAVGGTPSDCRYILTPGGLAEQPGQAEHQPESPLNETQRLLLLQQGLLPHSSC

[37] = biological target: T1, Alpha-2A adrenergic receptor (Homo sapiens) (UniProt P08913); settings: Compound concentration 10.0 uM
T1 sequence (whole entry): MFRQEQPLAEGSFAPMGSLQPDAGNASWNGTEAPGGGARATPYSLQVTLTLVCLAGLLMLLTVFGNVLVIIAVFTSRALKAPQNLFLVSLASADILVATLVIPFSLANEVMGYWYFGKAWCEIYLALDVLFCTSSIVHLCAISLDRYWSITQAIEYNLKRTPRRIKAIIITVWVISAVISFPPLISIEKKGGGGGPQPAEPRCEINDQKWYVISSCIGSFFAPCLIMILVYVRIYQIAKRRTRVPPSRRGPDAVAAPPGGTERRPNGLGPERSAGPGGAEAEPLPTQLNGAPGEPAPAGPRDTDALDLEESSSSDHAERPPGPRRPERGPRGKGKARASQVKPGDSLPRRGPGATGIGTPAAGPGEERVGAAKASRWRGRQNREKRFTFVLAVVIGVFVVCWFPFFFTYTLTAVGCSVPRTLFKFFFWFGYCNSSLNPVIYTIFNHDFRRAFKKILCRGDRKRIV

[38] = biological target: Sigma intracellular receptor 2 (Homo sapiens) (UniProt Q5BJF2); settings: Compound concentration 10.0 uM

Chain of BMP-2-inducible protein kinase (Homo sapiens) (Q9NSY1 whole entry, looked up, canonical isoform): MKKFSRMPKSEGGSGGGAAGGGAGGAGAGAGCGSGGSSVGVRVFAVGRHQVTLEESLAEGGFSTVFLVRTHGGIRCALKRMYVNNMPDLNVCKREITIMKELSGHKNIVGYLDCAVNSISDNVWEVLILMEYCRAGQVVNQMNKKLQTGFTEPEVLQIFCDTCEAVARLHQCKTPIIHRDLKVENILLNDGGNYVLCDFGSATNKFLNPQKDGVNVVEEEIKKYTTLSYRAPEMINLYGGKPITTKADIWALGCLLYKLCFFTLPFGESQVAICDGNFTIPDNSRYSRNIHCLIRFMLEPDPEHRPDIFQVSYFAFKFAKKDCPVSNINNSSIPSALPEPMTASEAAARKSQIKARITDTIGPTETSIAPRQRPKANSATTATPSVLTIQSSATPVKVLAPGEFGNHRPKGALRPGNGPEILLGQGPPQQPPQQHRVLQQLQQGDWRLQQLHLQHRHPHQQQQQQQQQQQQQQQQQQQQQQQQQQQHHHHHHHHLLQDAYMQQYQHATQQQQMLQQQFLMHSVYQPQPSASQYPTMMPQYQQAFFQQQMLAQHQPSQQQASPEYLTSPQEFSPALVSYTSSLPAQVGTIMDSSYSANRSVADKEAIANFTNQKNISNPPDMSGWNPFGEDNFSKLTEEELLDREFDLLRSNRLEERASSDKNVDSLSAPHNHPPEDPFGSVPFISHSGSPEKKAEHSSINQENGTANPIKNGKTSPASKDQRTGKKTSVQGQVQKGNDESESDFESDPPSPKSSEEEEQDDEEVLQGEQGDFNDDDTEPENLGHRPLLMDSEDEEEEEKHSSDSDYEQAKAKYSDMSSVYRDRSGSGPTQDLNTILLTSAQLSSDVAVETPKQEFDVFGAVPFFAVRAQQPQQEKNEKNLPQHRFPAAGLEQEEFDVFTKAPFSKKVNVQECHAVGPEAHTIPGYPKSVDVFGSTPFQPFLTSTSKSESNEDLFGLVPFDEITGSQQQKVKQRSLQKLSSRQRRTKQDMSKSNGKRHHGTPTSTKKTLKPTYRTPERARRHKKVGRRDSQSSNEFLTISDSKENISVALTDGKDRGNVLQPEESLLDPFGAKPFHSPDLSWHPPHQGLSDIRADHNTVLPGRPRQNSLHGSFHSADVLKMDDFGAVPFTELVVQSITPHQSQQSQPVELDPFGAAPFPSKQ

Cc1nccc(COC(=O)N2C[C@@H]3[C@@H](CNC(=O)c4ccc5[nH]nnc5c4)[C@@H]3C2)n1 [BI 3017]
inactive: residual activity [1] 81% | residual activity [2] 100% | residual activity [3] 100% | residual activity [4] 100% | residual activity [5] 100% | residual activity [6] 100% | residual activity [7] 93% | residual activity [8] 93% | residual activity [9] 100% | residual activity [10] 91% | residual activity [11] 89% | residual activity [12] 97% | residual activity [13] 100% | residual activity [14] 100% | residual activity [15] 100% | residual activity [16] 93% | residual activity [17] 82% | residual activity [18] 90% | residual activity [19] 87% | residual activity [20] 98% | residual activity [21] 100% | residual activity [22] 100% | residual activity [23] 89% | residual activity [24] 97% | residual activity [25] 93% | residual activity [26] 100% | residual activity [27] 100% | residual activity [28] 94% | residual activity [29] 93% | residual activity [30] 100% | residual activity [31] 95% | residual activity [32] 98% | residual activity [33] 86% | residual activity [34] 98% | residual activity [35] 94% | residual activity [36] 100% | inhibition [37] 2.2% | inhibition [38] -2.9%

O=C(NC[C@@H]1[C@H]2CN(C(=O)OCc3cc(C(F)(F)F)cc(C(F)(F)F)c3)C[C@@H]12)c1ccc2[nH]nnc2c1 [BI 2545]
inactive: residual activity [1] 88% | residual activity [2] 85% | residual activity [3] 97% | residual activity [4] 89% | residual activity [5] 72% | residual activity [6] 83% | residual activity [7] 88% | residual activity [8] 82% | residual activity [9] 71% | residual activity [10] 84% | residual activity [11] 96% | residual activity [12] 86% | residual activity [13] 100% | residual activity [14] 100% | residual activity [15] 100% | residual activity [16] 98% | residual activity [17] 100% | residual activity [18] 90% | residual activity [19] 94% | residual activity [20] 100% | residual activity [21] 100% | residual activity [22] 96% | residual activity [23] 76% | residual activity [24] 100% | residual activity [25] 98% | residual activity [26] 80% | residual activity [27] 86% | residual activity [28] 100% | residual activity [29] 100% | residual activity [30] 100% | residual activity [31] 100% | residual activity [32] 94% | residual activity [33] 89% | residual activity [34] 77% | residual activity [35] 80% | residual activity [36] 75% | inhibition [37] 14.3% | inhibition [38] 44.9%
